Peptide text beside a SMILES is read from it.
Experiments:
[1] = tested on: T1, ADAM10/AP2 complex (Rattus norvegicus); assay: co-immunoprecipitation of ADAM10 with AP2 (α-adaptin) in acute hippocampal slices; assay type: cell-based; conditions: 10 µM, 30 min
T1 construct: endogenous in cells; host or cells: primary hippocampal neurons of rat embryos, DIV14
Method: (§1) The acute hippocampal slices were obtained from rat brain. After carefully removing the meninges, the hippocampus was isolated and dissected using the McIlwain tissue chopper. The hippocampal slices were then transferred into supports containing Krebs buffer, in the presence of a constant flow of 95% O2 and 5% CO2 5% (v/v). The acute slices were kept for 45 min at ambient temperature before proceeding with treatment with the peptide.
(§2) For the treatments of the acute hippocampal slices, all the peptides were diluted in Krebs buffer at a concentration of 10µM. The treatments were performed for 30 minutes and subsequently the sample was immediately frozen.
(§3) For the co-immunoprecipitation experiments, aliquots of 40-100 µg of lysate were incubated at 4°C in RIA 1X buffer (NaCl 200 mM, EDTA 10 mM, Na2HPO4 10 mM, Nonidet P-40, 0.5% and 0.1% SDS) in a final volume of 150 µl with 1-2 µg of antibody. The following day the protein complex A/G (Santa Cruz Biotechnology) was added, conjugated with agarose marbles, and the incubation was continued for 2 hours. After three washes with RIA buffer the samples were loaded onto SDS-PAGE and analysed through Western Blot.
(§4) The quantization of the Western Blot analyses was performed through an image analysis program (ImageLab -BioRad). The levels of proteins were expressed as optical density (OD) related to the different measurements and were normalized on respective tubulin levels.
(§5) The samples were then processed, and the total homogenate was used to evaluate the interaction levels between ADAM10 and the complex AP2. The co-immunoprecipitation experiment (co-IP), performed using an anti-ADAM10 antibody, made it possible to verify that two of the three peptides (PEP2 (SEQ ID NO:2) and PEP3 (SEQ ID NO:1)) were able to interfere with the interaction between ADAM10 and α-adaptin, one of the subunits that constitutes the complex AP2 (Figure 1A).

ADAM10/AP2 complex [2] = molecular target: T2, ADAM10/AP2 complex (Rattus norvegicus, UniProt P62944); assay: as above; assay type: cell-based; conditions: 10 µM, 30 minutes
T2 construct: endogenous in cells; host or cells: primary hippocampal neurons of rat embryos, DIV14
T2 sequence (P18484 whole entry): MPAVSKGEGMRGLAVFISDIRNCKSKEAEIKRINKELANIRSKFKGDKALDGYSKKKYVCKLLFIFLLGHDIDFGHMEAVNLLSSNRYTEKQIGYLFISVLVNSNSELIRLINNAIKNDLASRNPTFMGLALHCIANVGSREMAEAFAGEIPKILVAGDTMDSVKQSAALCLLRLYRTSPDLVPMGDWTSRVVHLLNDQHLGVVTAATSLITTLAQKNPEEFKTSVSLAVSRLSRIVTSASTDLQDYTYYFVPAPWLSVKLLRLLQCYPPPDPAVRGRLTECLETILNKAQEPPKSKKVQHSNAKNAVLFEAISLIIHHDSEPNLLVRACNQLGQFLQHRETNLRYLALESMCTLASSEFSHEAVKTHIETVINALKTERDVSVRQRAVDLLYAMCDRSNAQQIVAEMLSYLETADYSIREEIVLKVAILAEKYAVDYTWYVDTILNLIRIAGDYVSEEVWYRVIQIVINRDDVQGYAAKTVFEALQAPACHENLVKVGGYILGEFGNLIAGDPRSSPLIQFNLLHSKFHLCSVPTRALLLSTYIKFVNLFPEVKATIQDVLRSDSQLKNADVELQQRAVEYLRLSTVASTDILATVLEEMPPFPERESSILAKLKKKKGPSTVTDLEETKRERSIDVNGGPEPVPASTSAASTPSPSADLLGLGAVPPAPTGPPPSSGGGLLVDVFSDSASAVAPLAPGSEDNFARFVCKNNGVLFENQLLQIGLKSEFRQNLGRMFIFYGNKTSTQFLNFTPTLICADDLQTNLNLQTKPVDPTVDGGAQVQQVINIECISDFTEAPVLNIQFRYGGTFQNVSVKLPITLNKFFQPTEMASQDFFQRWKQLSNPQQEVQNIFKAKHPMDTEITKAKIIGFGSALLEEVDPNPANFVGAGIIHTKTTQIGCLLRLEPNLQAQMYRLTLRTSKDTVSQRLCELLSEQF
T2 sequence (P62744 whole entry, further chain): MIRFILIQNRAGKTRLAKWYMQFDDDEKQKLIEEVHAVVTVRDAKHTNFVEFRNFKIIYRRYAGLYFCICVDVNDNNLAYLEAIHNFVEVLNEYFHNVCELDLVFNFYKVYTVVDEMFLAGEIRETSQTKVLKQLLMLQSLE
T2 sequence (P84092 whole entry, further chain): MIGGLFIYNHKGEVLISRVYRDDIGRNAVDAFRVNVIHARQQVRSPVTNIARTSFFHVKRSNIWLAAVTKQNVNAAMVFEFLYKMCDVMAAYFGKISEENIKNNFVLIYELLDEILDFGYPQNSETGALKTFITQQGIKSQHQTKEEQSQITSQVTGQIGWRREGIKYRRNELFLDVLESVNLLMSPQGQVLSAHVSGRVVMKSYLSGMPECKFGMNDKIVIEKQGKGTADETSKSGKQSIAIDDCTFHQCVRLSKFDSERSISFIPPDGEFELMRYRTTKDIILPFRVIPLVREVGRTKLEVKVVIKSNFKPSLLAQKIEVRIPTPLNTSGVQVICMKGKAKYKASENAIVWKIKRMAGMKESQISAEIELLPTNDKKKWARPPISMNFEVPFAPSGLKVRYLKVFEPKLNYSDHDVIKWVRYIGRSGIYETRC
T2 sequence (P62944 whole entry): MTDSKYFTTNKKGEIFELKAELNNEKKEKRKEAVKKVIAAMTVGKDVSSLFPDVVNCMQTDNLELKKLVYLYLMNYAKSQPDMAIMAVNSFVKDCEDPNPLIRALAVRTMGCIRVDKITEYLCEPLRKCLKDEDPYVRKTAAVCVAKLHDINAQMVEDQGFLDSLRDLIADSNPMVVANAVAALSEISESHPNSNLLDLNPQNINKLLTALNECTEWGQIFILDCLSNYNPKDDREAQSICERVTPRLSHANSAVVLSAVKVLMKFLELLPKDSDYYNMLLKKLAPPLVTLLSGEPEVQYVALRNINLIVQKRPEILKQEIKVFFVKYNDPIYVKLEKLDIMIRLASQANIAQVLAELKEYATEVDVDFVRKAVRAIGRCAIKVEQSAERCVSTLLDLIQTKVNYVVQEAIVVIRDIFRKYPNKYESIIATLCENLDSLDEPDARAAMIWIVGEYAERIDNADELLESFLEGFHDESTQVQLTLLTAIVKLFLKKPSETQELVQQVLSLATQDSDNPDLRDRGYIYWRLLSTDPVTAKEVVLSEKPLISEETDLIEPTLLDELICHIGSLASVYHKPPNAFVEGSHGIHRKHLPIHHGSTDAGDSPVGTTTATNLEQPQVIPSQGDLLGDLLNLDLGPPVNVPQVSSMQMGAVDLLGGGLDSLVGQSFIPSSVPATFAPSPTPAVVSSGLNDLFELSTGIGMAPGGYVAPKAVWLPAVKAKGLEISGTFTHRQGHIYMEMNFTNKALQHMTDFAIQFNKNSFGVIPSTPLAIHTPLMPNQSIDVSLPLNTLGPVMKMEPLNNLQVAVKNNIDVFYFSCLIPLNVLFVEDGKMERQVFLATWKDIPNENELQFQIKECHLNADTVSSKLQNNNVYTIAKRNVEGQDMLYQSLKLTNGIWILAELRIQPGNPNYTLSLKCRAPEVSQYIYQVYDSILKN
Method: as §1, §2, §3, §4, §5

ADAM10/AP2 complex [3] = molecular target: T2, ADAM10/AP2 complex; assay: co-immunoprecipitation of ADAM10 with AP2 subunits in primary cultures of hippocampal neurons; assay type: cell-based
Method: The primary cultures were prepared from hippocampi of rat embryos as described in [20]. The cultures were grown in media containing Neurobasal (Life Technologies), B27 2% (Life Technologies), GlutaMAX 1% (Life Technologies) and Penicillin/Streptomycin 1% (Pen/Strep; Life Technologies), a 37 °C with 95% humidity and 5% CO2 for 14 days. The cells were treated by diluting the peptides in the complete growth medium, at a final concentration of 1 µM. The treatment was performed for 30 minutes at 37°C, then the neurons were lysed.
as §3, §4
After 30 minutes, the cells were processed and the cell lysate was used for performing the co-IP analyses.

[4] = blood-brain barrier crossing, anti-TAT immunohistochemistry on coronal brain sections; assay type: in vivo; conditions: C57BL/6 mice, intraperitoneal injection 3 nmoles/g, 24 hours
Method: For the immunohistochemistry analyses, mice treated with the peptide were anaesthetized deeply and subjected to transcardial perfusion with 4% paraformaldehyde (prepared in PBS, pH 7.2-7.4), through the use of a peristaltic pump. The fixing liquid was inserted into the blood circulation through the left ventricle and after 10 minutes the brain was isolated. The sample was then post-fixed for 1 hour and 30 minutes at 4°C, then washed with PBS 1X and placed o/n in a 30% sucrose solution. The following day the sample was washed again with PBS 1X cut with the vibratome obtaining coronal sections of 50µm. Then the sections were stained through free-floating immunofluorescence technique. The fluorescence images were acquired using the Zeiss Confocal LSM510 Meta system with 63x objective at a resolution of 1024x1024 pixels. […]
The coronal sections were incubated with a specific antibody for the identification of the MAP2 neurons, and an antibody able to recognize the TAT sequence of HIV-1 present in the CPPs. As shown by the arrows in Figure 6, the presence of a specific signal of the anti-TAT antibody can be identified, which can only be detected in the coronal sections of brain of animals treated with CPPs. […] In the brain of animals only treated with saline solution (Figure 6, panel A), such signal cannot be detected.

[5] = primary hippocampal neurons DIV 14, 1 µM, 30 minutes

T1 sequence (P18484 whole entry): as the sequence (P18484 whole entry) above
T1 sequence (P62744 whole entry, further chain): as the sequence (P62744 whole entry, further chain) above
T1 sequence (P84092 whole entry, further chain): as the sequence (P84092 whole entry, further chain) above
T1 sequence (P62944 whole entry, further chain): as the sequence (P62944 whole entry) above

Question: What does the source list for CC(C)C[C@H](NC(=O)[C@H](CCCNC(=N)N)NC(=O)[C@@H]1CCCN1C(=O)[C@H](CCCNC(=N)N)NC(=O)[C@H](CCC(N)=O)NC(=O)[C@H](CCCNC(=N)N)NC(=O)[C@@H]1CCCN1C(=O)[C@@H]1CCCN1C(=O)[C@H](CC(C)C)NC(=O)CNC(=O)[C@H](CO)NC(=O)CNC(=O)CNC(=O)[C@H](CCCNC(=N)N)NC(=O)[C@H](CCCNC(=N)N)NC(=O)[C@H](CCCNC(=N)N)NC(=O)[C@H](CCC(N)=O)NC(=O)[C@H](CCCNC(=N)N)NC(=O)[C@H](CCCNC(=N)N)NC(=O)[C@H](CCCCN)NC(=O)[C@H](CCCCN)NC(=O)[C@H](CCCNC(=N)N)NC(=O)CNC(=O)[C@@H](N)Cc1ccc(O)cc1)C(=O)O [PEP2] (H-YGRKKRRQRRRGGSGLPPRQRPRL-OH)?
Answer: PEP/inPEP ratio of optical density (OD), ADAM10/AP2 complex (α-adaptin) [1]: 41.60 ± 23.86%; reduction of the interaction between ADAM10 and α-adaptin (ADAM10/AP2 complex [2]): 58.4%; PEP/inPEP OD, ADAM10/AP2 complex, µ2 (ADAM10/AP2 complex [3]; primary cultures of neurons, 1µM, 30 min): 52.01 ± 3.77%; reduction in the levels of interaction between ADAM10 and the complex AP2, subunit µ2 (ADAM10/AP2 complex [3]; [5]): 48%; reduction in the levels of interaction between ADAM10 and the complex AP2, subunit α-adaptin (ADAM10/AP2 complex [3]; [5]): 66%; capacity to cross the blood-brain barrier (BBB) [4]: can cross the BBB and penetrate into the neuron cells

— patent publication EP3727588B1, “ACTIVATOR PEPTIDES OF THE ENZYME ADAM 10 AND RELATED USES IN THE TREATMENT OF ALZHEIMER'S DISEASE” (UNIVERSITA' DEGLI STUDI DI MILANO, priority 2017, dated 2019)
